Patent US5096898A, “Bile acid unsaturated derivatives and pharmaceutical compositions containing them” (Giuliani S.p.A., priority 1990, dated 1992)
Converted amounts (≈) assume the structure as drawn. “Also recorded” adds a separate entry of the source. Where two headings read alike, the source gives them in different places.

Legend:
[1] = Physico-chemical characteristics (Table 1); format: physicochemical; set-up: Critical micellar concentration (CMC): unit not given here; conditions: for chromatographic logP: c18 hplc
[2] = Effect on bile flow and bile lipid secretion; format: in vivo, rat; conditions: for SMAB (maximum secretion) / SMPL (maximum bile lipid secretion) / SMVo = maximum bile flow / SMXOL (maximum bile lipid secretion): intravenous, 6 μmoles/min/kg during 1 hour (stated for TOL-UDCA)
Procedure: (§1) Trans 3α,7β-dihydroxy-5β-24-cholen-27-oic acid (TOL-UDCA) was studied compared with ursodeoxycholic acid and the glycine and taurine conjugated thereof also in the following pharmacological tests:
effects on the secretion of bile, bile acids, cholesterol and phospholipids.
(§2) TOL-UDCA was administered to rat by intravenous and intraduodenal routes at a dose of 6 μmoles/min/kg during 1 hour.
SMVo = maximum bile flow
SM = maximum bile lipid secretion

[3] = Hepatic absorption, metabolism and biliary secretion, intravenous; format: in vivo; conditions: rat
Procedure: as §1
hepatic and intestinal metabolism (in vivo and in vitro)
hepatic and intestinal absorption
as §2

[4] = read-out: Retention times with C18-HPLC (K') (converted)

Row | SMILES | Critical micellar concentration (CMC) [1] | pKa [1] | solubility [1] [µM] | chromatographic logP [1, 4] | SMAB (maximum secretion) [2] | SMPL (maximum bile lipid secretion) [2] | SMVo = maximum bile flow [2] [mL/h/kg] | SMXOL (maximum bile lipid secretion) [2] | pKa ([1]; read-out: pKa) | kinetic of recovery in the bile ([3]; intravenous, 6 μmoles/min/kg during 1 hour) | accumulation in the hepatic cells ([3]; in vivo) | disappearance from the bile ([3]; in vivo) | presence in bile 2 hours after end of infusion ([3]; in vivo) | chromatographic logP [1] | bile flow / choleretic effect (in words) ([2]; compared with UDCA natural analogs and conjugated forms) | solubility ([1]; read-out: Solubility) [µM]
1 | C[C@H](CCC(=O)NCC(=O)O)[C@H]1CC[C@H]2[C@@H]3[C@@H](O)C[C@@H]4C[C@H](O)CC[C@]4(C)[C@H]3CC[C@]12C [G-UDCA] | 12 | 3.9 | 3 (≈ 1.35 µg/mL) | 0.0253 | 2,10 μmol/min/kg | 0,39 μmol/min/kg | 2.4 | 0,028 μmol/min/kg | – | – | – | – | – | – | – | –
2 | C[C@H](CCC(=O)NCCS(=O)(=O)O)[C@H]1CC[C@H]2[C@@H]3[C@@H](O)C[C@@H]4C[C@H](O)CC[C@]4(C)[C@H]3CC[C@]12C [T-UDCA] | 8 | – | – | -0.00877 | 2,40 μmol/min/kg | 0,18 μmol/min/kg | 2.1 | 0,014 μmol/min/kg | 2 | – | – | – | – | – | – | –
3 | C[C@H](CC/C=C/CC(=O)O)[C@H]1CC[C@H]2[C@@H]3[C@@H](O)C[C@@H]4C[C@H](O)CC[C@]4(C)[C@H]3CC[C@]12C [TOL-UDCA, Trans-3α,7β-dihydroxy-5β-24-cholen-27-oic acid] | 5 | 5.02 | 10 (≈ 4.33 µg/mL) | – | 1,02 μmol/min/kg | 0,12 μmol/min/kg | 5.4 | 0,020 μmol/min/kg | – | recovered in the bile with a slow kinetic | accumulates in the hepatic cells | disappears from the bile with a slow kinetic | a noticeable amount of this bile acid is still present 2 hours after | 0.96 | increases bile flow and this effect is stronger than the one of UDCA natural analogs and of the conjugated forms thereof; also recorded: strong choleretic effect after intravenous or intraduodenal administrations, which effect is higher than that of UDCA | –
4 | C[C@H](CCC(=O)O)[C@H]1CC[C@H]2[C@@H]3[C@@H](O)C[C@@H]4C[C@H](O)CC[C@]4(C)[C@H]3CC[C@]12C [UDCA, ursodeoxycholic acid] | 19 | – | – | 0.563 | 3,02 μmol/min/kg | 0,22 μmol/min/kg | 3.6 | 0,022 μmol/min/kg | 5.06 | – | – | – | – | – | – | 9 (≈ 3.53 µg/mL)
